Our source for the IC50 values is patent US12617773B2, “Azetidin-3-ylmethanol derivatives as CCR6 receptor modulators” (Idorsia Pharmaceuticals Ltd, priority 2020, dated 2026).

The target of the assay is T1, human CCR6 (Homo sapiens, UniProt P51684).
T1 construct: expressed in transfected cells; host or cells: HEK-293
T1 sequence (P51684 1-374): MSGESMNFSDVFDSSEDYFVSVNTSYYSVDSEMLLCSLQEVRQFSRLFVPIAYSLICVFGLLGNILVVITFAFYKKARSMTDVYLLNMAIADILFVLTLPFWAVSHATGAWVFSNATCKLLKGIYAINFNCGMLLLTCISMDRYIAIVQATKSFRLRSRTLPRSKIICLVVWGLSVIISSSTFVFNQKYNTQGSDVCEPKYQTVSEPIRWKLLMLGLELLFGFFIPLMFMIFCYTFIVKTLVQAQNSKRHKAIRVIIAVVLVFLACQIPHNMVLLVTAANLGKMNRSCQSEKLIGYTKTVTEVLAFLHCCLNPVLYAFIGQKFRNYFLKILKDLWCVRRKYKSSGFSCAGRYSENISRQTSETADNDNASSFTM
The experiment in a line: FLIPR assay (inhibition of CCL20-induced calcium signal). The following applies: HEK-293 cells expressing human CCR6; mean values where determined several times; read-out: FLIPR IC50. The assay is classed as cell-based. The procedure, abridged:
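IC50 values come from baseline-corrected peak calcium fluorescence after agonist. The agonist was CCL20 at 10 nM final, added to engineered human CCR6 HEK-293 cells following a 30-min, room-temperature, dark preincubation with serially diluted compound. Readings were taken in a fluorometric imaging plate reader.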
For orientation: IC50 means the concentration needed to halve the response being measured. For the molecule `CC(C)c1ccc([C@](O)(c2cncc(-c3noc(C(C)(O)CO)n3)c2)C2(C)CN(C)C2)cc1` (stereo partly shown) [Example 494], the IC50 was determined as 240 nM. The result for `CC(C)c1ccc([C@](O)(c2cncc(-c3noc(-c4cccnc4)n3)c2)C2(C)CN(C)C2)cc1` [Example 495] reads 20.9 nM; that for `CC(=O)N1CCC(Cc2nc(-c3cncc([C@@](O)(c4ccc(C(C)C)cc4)C4(C)CN(C)C4)c3)no2)CC1` [Example 496], 69.7 nM. In the case of `CC(C)c1ccc([C@](O)(c2cncc(-c3noc(CC#N)n3)c2)C2(C)CN(C)C2)cc1` [Example 497], the IC50 worked out at 74.3 nM. Under `CC(=O)N1CCC(O)(c2nc(-c3cncc([C@@](O)(c4ccc(C(C)C)cc4)C4(C)CN(C)C4)c3)no2)CC1` [Example 498, 1-[4-(3-{5-[(R)-(1,3-Dimethyl-azetidin-3-yl)-hydroxy-(4-isopropyl-phenyl)-methyl]-pyridin-3-yl}-[1,2,4]oxadiazol-5-yl)-4-hydroxy-piperidin-1-yl]-ethanone] stands 234 nM; under `CC(C)c1ccc([C@](O)(c2cncc(-c3noc(CCC#N)n3)c2)C2(C)CN(C)C2)cc1` [Example 499, 3-(3-{5-[(R)-(1,3-Dimethyl-azetidin-3-yl)-hydroxy-(4-isopropyl-phenyl)-methyl]-pyridin-3-yl}-[1,2,4]oxadiazol-5-yl)-propionitrile], 53.8 nM; under `COC1CN(C(C)=O)CCC1c1nc(-c2cncc([C@@](O)(c3ccc(C(C)C)cc3)C3(C)CN(C)C3)c2)no1` (stereo partly drawn) [Example 500, 1-[4-(3-{5-[(R)-(1,3-Dimethyl-azetidin-3-yl)-hydroxy-(4-isopropyl-phenyl)-methyl]-pyridin-3-yl}-[1,2,4]oxadiazol-5-yl)-3-methoxy-piperidin-1-yl]-ethanone], 149 nM. The result for `CC(=O)N1CCC[C@@H](c2nc(-c3cncc([C@@](O)(c4ccc(C(C)C)cc4)C4(C)CN(C)C4)c3)no2)C1` [Example 501, 1-[(R)-3-(3-{5-[(R)-(1,3-Dimethyl-azetidin-3-yl)-hydroxy-(4-isopropyl-phenyl)-methyl]-pyridin-3-yl}-[1,2,4]oxadiazol-5-yl)-piperidin-1-yl]-ethanone] reads 108 nM. Under `CC(C)c1ccc([C@](O)(c2cncc(-c3noc(C4(O)CCOCC4)n3)c2)C2(C)CN(C)C2)cc1` [Example 502] stands 65.8 nM. On to `CC(C)c1ccc([C@](O)(c2cncc(-c3noc(C45CC(CO)(C4)C5)n3)c2)C2(C)CN(C)C2)cc1` [Example 503], for which the IC50 turned out to be 51.1 nM. Under `CC(C)c1ccc([C@](O)(c2cncc(-c3noc(C4CC(=O)N(C)C(=O)C4)n3)c2)C2(C)CN(C)C2)cc1` [Example 504] stands 143 nM; under `CC(C)c1ccc([C@](O)(c2cncc(-c3noc(C(F)(F)CO)n3)c2)C2(C)CN(C)C2)cc1` [Example 505], 35.9 nM; under `COc1cccc(-c2nc(-c3cncc([C@@](O)(c4ccc(C(C)C)cc4)C4(C)CN(C)C4)c3)no2)c1` [Example 506], 24 nM. The result for `CC(C)c1ccc([C@](O)(c2cncc(-c3noc(C(C)C)n3)c2)C2(C)CN(C)C2)cc1` [Example 507] reads 32.7 nM; that for `Cc1cc(-c2nc(-c3cncc([C@@](O)(c4ccc(C(C)C)cc4)C4(C)CN(C)C4)c3)no2)ncn1` [Example 508], 49.1 nM; that for `CC(=O)N1CC[C@@H](Cc2nc(-c3cncc([C@@](O)(c4ccc(C(C)C)cc4)C4(C)CN(C)C4)c3)no2)C1` [Example 514], 142 nM. Consider `Cc1nc(-c2cncc([C@@](O)(c3ccc(C(C)C)cc3)C3(C)CN(C)C3)c2)no1` [Example 517, (R)-(1,3-Dimethyl-azetidin-3-yl)-(4-isopropyl-phenyl)-[5-(5-methyl-[1,2,4]oxadiazol-3-yl)-pyridin-3-yl]-methanol], for which the IC50 worked out at 63.5 nM. Under `CC(C)c1ccc([C@](O)(c2cncc(-c3noc(C(C)(F)F)n3)c2)C2(C)CN(C)C2)cc1` [Example 518, (R)-{5-[5-(1,1-Difluoro-ethyl)-[1,2,4]oxadiazol-3-yl]-pyridin-3-yl}-(1,3-dimethyl-azetidin-3-yl)-(4-isopropyl-phenyl)-methanol] stands 41.2 nM; under `CC(C)c1ccc([C@](O)(c2cncc(-c3nc(C4(O)CCOCC4)no3)c2)C2(C)CN(C)C2)cc1` [Example 519, 4-(5-{5-[(R)-(1,3-Dimethyl-azetidin-3-yl)-hydroxy-(4-isopropyl-phenyl)-methyl]-pyridin-3-yl}-[1,2,4]oxadiazol-3-yl)-tetrahydro-pyran-4-ol], 168 nM; under `CC(C)c1ccc([C@](O)(c2cncc(-c3nc(COC(C)(C)C)no3)c2)C2(C)CN(C)C2)cc1` [Example 520], 62.6 nM. Under `CC(C)c1ccc([C@](O)(c2cncc(-c3nc(CO)no3)c2)C2(C)CN(C)C2)cc1` [Example 521] stands 153 nM; under `CC(=O)N1CCN(c2noc(-c3cncc([C@@](O)(c4ccc(C(C)C)cc4)C4(C)CN(C)C4)c3)n2)CC1` [Example 522], 119 nM; under `CC(=O)N1CC(Cc2noc(-c3cncc([C@@](O)(c4ccc(C(C)C)cc4)C4(C)CN(C)C4)c3)n2)C1` [Example 523], 297 nM. Under `CC(C)c1ccc([C@](O)(c2cncc(-c3nc(CC4(O)CCOCC4)no3)c2)C2(C)CN(C)C2)cc1` [Example 524, 4-(5-{5-[(R)-(1,3-Dimethyl-azetidin-3-yl)-hydroxy-(4-isopropyl-phenyl)-methyl]-pyridin-3-yl}-[1,2,4]oxadiazol-3-ylmethyl)-tetrahydro-pyran-4-ol] stands 178 nM; under `CC(C)c1ccc([C@](O)(c2cncc(-c3nc(C4CCN(C(=O)C5COCCO5)CC4)no3)c2)C2(C)CN(C)C2)cc1` (stereo partly drawn) [Example 525, [4-(5-{5-[(R)-(1,3-Dimethyl-azetidin-3-yl)-hydroxy-(4-isopropyl-phenyl)-methyl]-pyridin-3-yl}-[1,2,4]oxadiazol-3-yl)-piperidin-1-yl]-[1,4]dioxan-2-yl-methanone], 187 nM. As for `COCC(=O)N1CCC(c2noc(-c3cncc([C@@](O)(c4ccc(C(C)C)cc4)C4(C)CN(C)C4)c3)n2)CC1` [Example 526, 1-[4-(5-{5-[(R)-(1,3-Dimethyl-azetidin-3-yl)-hydroxy-(4-isopropyl-phenyl)-methyl]-pyridin-3-yl}-[1,2,4]oxadiazol-3-yl)-piperidin-1-yl]-2-methoxy-ethanone], the IC50 is 171 nM. `CC(C)c1ccc([C@](O)(c2cncc(-c3nc(C4CCN(S(C)(=O)=O)CC4)no3)c2)C2(C)CN(C)C2)cc1` [Example 527, (R)-(1,3-Dimethyl-azetidin-3-yl)-(4-isopropyl-phenyl)-{5-[3-(1-methanesulfonyl-piperidin-4-yl)-[1,2,4]oxadiazol-5-yl]-pyridin-3-yl}-methanol]: the IC50 stood at 74.3 nM. On to `COCCS(=O)(=O)N1CCC(c2noc(-c3cncc([C@@](O)(c4ccc(C(C)C)cc4)C4(C)CN(C)C4)c3)n2)CC1` [Example 528, (R)-(1,3-Dimethyl-azetidin-3-yl)-(4-isopropyl-phenyl)-(5-{3-[1-(2-methoxy-ethanesulfonyl)-piperidin-4-yl]-[1,2,4]oxadiazol-5-yl}-pyridin-3-yl)-methanol], for which the IC50 worked out at 66.9 nM.
